Data as given in patent publication US10670605B2, “Cysteine reactive probes and uses thereof” (The Scripps Research Institute, priority 2015, dated 2020).

Experiments:
Test in all cases: Competitive isoTOP-ABPP in situ (fragment-treated cells)
Format in all cases: cell-based
[1] = target: T1, cysteines in MDA-MB-231 and Ramos cells (Homo sapiens, UniProt Q9BTA9)
T1 sequence (Q9BTA9 1-647): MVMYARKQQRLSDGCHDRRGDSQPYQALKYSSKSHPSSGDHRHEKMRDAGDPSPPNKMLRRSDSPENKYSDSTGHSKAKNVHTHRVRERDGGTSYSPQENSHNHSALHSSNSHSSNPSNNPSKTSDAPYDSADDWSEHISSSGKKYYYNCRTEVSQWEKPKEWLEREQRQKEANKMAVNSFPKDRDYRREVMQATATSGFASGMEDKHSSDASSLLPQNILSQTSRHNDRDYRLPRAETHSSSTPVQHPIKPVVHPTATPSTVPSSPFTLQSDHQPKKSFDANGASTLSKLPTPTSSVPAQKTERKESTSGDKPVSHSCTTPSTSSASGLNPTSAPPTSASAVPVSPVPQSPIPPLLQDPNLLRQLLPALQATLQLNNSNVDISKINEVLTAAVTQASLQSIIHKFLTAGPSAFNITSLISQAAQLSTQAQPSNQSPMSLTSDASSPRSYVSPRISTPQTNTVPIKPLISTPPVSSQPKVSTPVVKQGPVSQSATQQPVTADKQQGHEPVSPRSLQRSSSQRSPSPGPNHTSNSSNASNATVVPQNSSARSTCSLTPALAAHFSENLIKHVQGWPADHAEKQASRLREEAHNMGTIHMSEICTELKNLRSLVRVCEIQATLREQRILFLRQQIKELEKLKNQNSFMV
Procedure: (§1) Fragments 4 and 11 were screened at 100 μM in situ. […] Site-specific engagement of electrophilic fragments was assessed by blockade of IA-alkyne probe labeling. […] Ratios for unique peptide entries were calculated for each experiment; overlapping peptides with the same modified cysteine (e.g. different charge states, MudPIT chromatographic steps or tryptic termini) were grouped together and the median ratio was reported as the final ratio (R). The peptide ratios reported by CIMAGE were further filtered to ensure the removal or correction of low quality ratios in each individual dataset. […] R values were calculated and individual datasets were filtered as described above (R value calculation and processing).

[2] = target: T2, cysteines in MDA-MB-231 and Ramos cells (Homo sapiens, UniProt Q86SX6)
T2 sequence (Q86SX6 32-157): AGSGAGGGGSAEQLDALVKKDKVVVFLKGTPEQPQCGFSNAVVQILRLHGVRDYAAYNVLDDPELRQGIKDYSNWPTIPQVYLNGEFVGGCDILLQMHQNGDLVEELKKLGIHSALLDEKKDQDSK
Procedure: as §1

[3] = target: T3, cysteines in MDA-MB-231 and Ramos cells (Homo sapiens, UniProt Q29RF7)
T3 sequence (Q29RF7 1-1337): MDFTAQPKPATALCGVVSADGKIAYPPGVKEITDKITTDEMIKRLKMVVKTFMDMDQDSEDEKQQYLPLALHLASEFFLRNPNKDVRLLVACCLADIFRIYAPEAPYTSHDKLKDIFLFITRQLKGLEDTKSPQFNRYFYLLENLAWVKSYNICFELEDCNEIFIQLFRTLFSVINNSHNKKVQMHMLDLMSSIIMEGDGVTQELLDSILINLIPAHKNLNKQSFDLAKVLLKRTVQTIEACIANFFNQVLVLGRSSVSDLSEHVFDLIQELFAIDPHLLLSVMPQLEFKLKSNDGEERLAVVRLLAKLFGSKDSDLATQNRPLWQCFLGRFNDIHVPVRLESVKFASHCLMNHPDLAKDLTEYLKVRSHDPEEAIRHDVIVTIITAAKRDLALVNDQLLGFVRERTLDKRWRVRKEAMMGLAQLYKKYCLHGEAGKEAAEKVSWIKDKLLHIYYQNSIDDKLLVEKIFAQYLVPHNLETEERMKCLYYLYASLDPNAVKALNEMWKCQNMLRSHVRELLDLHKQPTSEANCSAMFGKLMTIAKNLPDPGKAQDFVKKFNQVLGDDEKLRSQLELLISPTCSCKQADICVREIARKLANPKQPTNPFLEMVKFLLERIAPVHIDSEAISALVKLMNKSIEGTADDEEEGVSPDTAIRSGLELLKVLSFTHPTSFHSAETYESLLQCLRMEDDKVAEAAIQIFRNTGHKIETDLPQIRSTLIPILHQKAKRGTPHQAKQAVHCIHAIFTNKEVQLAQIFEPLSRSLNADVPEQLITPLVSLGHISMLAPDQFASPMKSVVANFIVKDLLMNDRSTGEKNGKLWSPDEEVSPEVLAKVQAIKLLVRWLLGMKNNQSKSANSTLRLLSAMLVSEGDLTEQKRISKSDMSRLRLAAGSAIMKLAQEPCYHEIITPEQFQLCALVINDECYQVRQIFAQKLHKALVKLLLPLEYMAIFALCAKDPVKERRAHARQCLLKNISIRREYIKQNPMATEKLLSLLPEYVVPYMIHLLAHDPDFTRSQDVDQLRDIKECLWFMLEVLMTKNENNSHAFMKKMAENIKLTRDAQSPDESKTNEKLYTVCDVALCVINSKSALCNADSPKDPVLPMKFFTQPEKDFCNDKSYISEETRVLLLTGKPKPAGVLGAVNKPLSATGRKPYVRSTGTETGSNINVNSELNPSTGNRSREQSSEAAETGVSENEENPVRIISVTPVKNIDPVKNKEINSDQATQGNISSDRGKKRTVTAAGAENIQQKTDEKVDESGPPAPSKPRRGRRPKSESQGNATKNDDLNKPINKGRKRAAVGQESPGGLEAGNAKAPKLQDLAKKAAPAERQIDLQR
Procedure: as §1

## COc1ccc2c(c1)CCCN2C(=O)CCl [compound 2]
[1]; 200 μM, insitu, 231
  isoTOP-ABPP reactivity Q9BTA9_0553 WAC: 17.6
[2]; 200 μM, insitu, 231
  isoTOP-ABPP reactivity Q865X6_C67 GLRX5: 1.1

## COc1ccc(C2CC(c3cccs3)=NN2C(=O)CCl)cc1 (stereo not drawn) [compound 4]
[3]; 100 μM in situ 231
  isoTOP-ABPP reactivity Q29RF7_C242 PDS5A: 3.0
  isoTOP-ABPP reactivity Q29RF7_C532 PDS5A: 20.0
[1]; 100 μM in situ 231
  isoTOP-ABPP reactivity Q9BTA9_0553 WAC: 17.8
[2]; 100 μM in situ 231
  isoTOP-ABPP reactivity Q865X6_C67 GLRX5: 1.4

## COc1cc2c(cc1OC)CN(C(=O)CCl)CC2 [compound 8]
[3]; 200 μM, insitu, 231
  isoTOP-ABPP reactivity Q29RF7_C242 PDS5A: 1.0
[1]; 200 μM, insitu, 231
  isoTOP-ABPP reactivity Q9BTA9_0553 WAC: 9.6
[2]; 200 μM, insitu, 231
  isoTOP-ABPP reactivity Q865X6_C67 GLRX5: 1.0

## O=C(CCl)N1CCC(Cc2ccccc2)CC1 [compound 9]
[2]; 200 μM, insitu, 231
  isoTOP-ABPP reactivity Q865X6_C67 GLRX5: 5.1

## O=C(CCl)N1CCN(S(=O)(=O)c2ccccc2F)CC1 [compound 10]
[3]; 200 μM, insitu, 231
  isoTOP-ABPP ratio, cysteine Q29RF7_C532: 20.0
[1]; 200 μM, insitu, 231
  isoTOP-ABPP ratio Q9BTA9_C553: 20.0
[2]; 200 μM, insitu, 231
  isoTOP-ABPP ratio Q86SX6_C67: 1.3
[2]; 200 μM, insitu, ramos
  isoTOP-ABPP ratio Q86SX6_C67: 1.1

## Cn1cc(S(=O)(=O)N2CCOCC2)cc1C(=O)NC(=O)CCl [compound 11]
[3]; 100 μM in situ 231
  isoTOP-ABPP ratio, cysteine Q29RF7_C242: 0.9
[1]; 100 μM in situ 231
  isoTOP-ABPP ratio Q9BTA9_C553: 1.7
[2]; 100 μM in situ 231
  isoTOP-ABPP ratio Q86SX6_C67: 1.4

## O=C(CCl)NC(=O)NC12CC3CC(CC(C3)C1)C2 [compound 12]
[3]; 200 μM, insitu, 231
  isoTOP-ABPP ratio, cysteine Q29RF7_C242: 12.9
[2]; 200 μM, insitu, 231
  isoTOP-ABPP ratio Q86SX6_C67: 1.6

## O=C(CCl)NCCc1c[nH]c2ccccc12 [compound 13]
[3]; 200 μM, insitu, ramos
  isoTOP-ABPP ratio, cysteine Q29RF7_C532: 2.0
[1]; 200 μM, insitu, 231
  isoTOP-ABPP ratio Q9BTA9_C553: 1.4
[2]; 200 μM, insitu, 231
  isoTOP-ABPP ratio Q86SX6_C67: 10.3
[2]; 200 μM, insitu, ramos
  isoTOP-ABPP ratio Q86SX6_C67: 12.4

## O=C(CCl)NC12CC3CC(CC(C3)C1)C2 [compound 21]
[3]; 200 μM, insitu, 231
  isoTOP-ABPP ratio, cysteine Q29RF7_C242: 0.9
[1]; 200 μM, insitu, 231
  isoTOP-ABPP ratio Q9BTA9_C553: 2.8
[2]; 200 μM, insitu, 231
  isoTOP-ABPP ratio Q86SX6_C67: 1.4

## CC(C)CCOCCNC(=O)CCl [compound 27]
[3]; 200 μM, insitu, 231
  isoTOP-ABPP ratio Q29RF7_C242: 0.9
[2]; 200 μM, insitu, 231
  isoTOP-ABPP ratio Q86SX6_C67: 1.5

## COc1ccccc1OCCNC(=O)CCl [compound 28]
[3]; 200 μM, insitu, 231
  isoTOP-ABPP ratio Q29RF7_C242: 1.0

## O=C(CCl)N1CCN(CC(=O)N2CCOCC2)CC1 [compound 29]
[1]; 200 μM, insitu, ramos
  isoTOP-ABPP ratio Q9BTA9_C553: 1.1
[2]; 200 μM, insitu, ramos
  isoTOP-ABPP ratio Q86SX6_C67: 1.2

## C=CC(=O)N(Cc1cccnc1)c1cc(C(F)(F)F)cc(C(F)(F)F)c1 [compound 31]
[3]; 200 μM, insitu, 231
  isoTOP-ABPP ratio Q29RF7_C532: 5.1
[3]; 200 μM, insitu, ramos
  isoTOP-ABPP ratio Q29RF7_C532: 8.1
[2]; 200 μM, insitu, ramos
  isoTOP-ABPP ratio Q86SX6_C67: 0.7

## C=CC(=O)Nc1cc(F)c(N2CCN(C(=O)OC(C)(C)C)CC2)c(F)c1 [compound 38]
[3]; 200 μM, insitu, 231
  isoTOP-ABPP ratio Q29RF7_C242: 1.0
[1]; 200 μM, insitu, 231
  isoTOP-ABPP ratio Q9BTA9_C553: 1.1
[2]; 200 μM, insitu, 231
  isoTOP-ABPP ratio Q86SX6_C67: 1.0

## Cc1ccc(C=C(C#N)C(=O)NCCN2CCOCC2)cc1 [compound 41]
[3]; 200 μM, insitu, 231
  isoTOP-ABPP ratio Q29RF7_C532: 0.8
[1]; 200 μM, insitu, 231
  isoTOP-ABPP ratio Q9BTA9_C553: 1.0
[2]; 200 μM, insitu, 231
  isoTOP-ABPP ratio Q86SX6_C67: 1.0

## CC1CCc2ccccc2N1C(=O)CCl (stereo not drawn) [compound 45]
[1]; 200 μM, insitu, 231
  isoTOP-ABPP ratio Q9BTA9_C553: 19.1
[2]; 200 μM, insitu, 231
  isoTOP-ABPP ratio Q86SX6_C67: 9.1

## O=C(CCl)Nc1cccc2ncccc12 [compound 51]
[3]; 200 μM, insitu, 231
  isoTOP-ABPP ratio Q29RF7_C242: 1.8
[1]; 200 μM, insitu, 231
  isoTOP-ABPP ratio Q9BTA9_C553: 1.2
[2]; 200 μM, insitu, 231
  isoTOP-ABPP ratio Q86SX6_C67: 1.0
